In US20250154686A1, “COMPOUND LIBRARY” (CHUGAI SEIYAKU KABUSHIKI KAISHA, priority 2021, published 2025):

Biological target: T1, Bcl-2 protein (Recombinant Human Bcl-2 Protein) (Homo sapiens, UniProt P10415)
T1 construct: purchased Novus Biologicals NBP2-34889
Assay: AS-MS evaluation of binding of the Example 4 mixture library (1200 compounds/well) to Bcl-2, ASMS ratio (%)
In short: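 Affinity-selection MS: 1200 cpds/well, 20 nM each; hBcl-2 20 μM; 25 mM Tris pH 7.4/150 mM NaCl/0.025% Tween-20/1 mM DTT; 1 h, 23 °C, dark; P-2 size-exclusion spin, MeCN:MeOH 1:1 extraction; RP LC/MS; ratio vs no-protein STD and SEC blank.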

[1] = replicate n = 1, mixture library, value belongs to the MS peak assigned to the compound
[2] = replicate n = 2, mixture library, value belongs to the MS peak assigned to the compound
[3] = AS-MS, Example 4 mixture library, Bcl-2, replicate n = 1
[4] = AS-MS, Example 4 mixture library, Bcl-2, replicate n = 2

T1 sequence (P10415 whole entry): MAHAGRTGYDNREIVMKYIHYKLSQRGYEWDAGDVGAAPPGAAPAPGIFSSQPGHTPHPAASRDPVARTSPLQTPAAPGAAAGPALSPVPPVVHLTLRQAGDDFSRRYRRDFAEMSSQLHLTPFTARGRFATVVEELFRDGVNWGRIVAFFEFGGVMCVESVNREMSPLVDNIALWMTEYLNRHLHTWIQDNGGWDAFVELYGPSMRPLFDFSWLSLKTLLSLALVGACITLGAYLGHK

Row | SMILES | ASMS ratio (%) n = 1 [1] | ASMS ratio (%) n = 2 [2] | ASMS ratio (%) n = 1 [3] | ASMS ratio (%) n = 2 [4] | also measured
1 | CCOc1cncc(-c2cnn(-c3cc(C(=O)N4CCN(c5ccc(C(=O)NS(=O)(=O)C(C)(C)C)nn5)CC4)cc(C(F)(F)F)c3)c2)c1 [Compound B2L022-01, N-tert-Butylsulfonyl-6-[4-[3-[4-(5-ethoxypyridin-3-yl)pyrazol-1-yl]-5-(trifluoromethyl)benzoyl]piperazin-1-yl]pyridazine-3-carboxamide] | 0.0% | 0.0% | – | – | –
2 | CCOc1cncc(-c2ccc(CN3CCN(c4ccc(C(=O)NS(=O)(=O)CCC(F)(F)F)cc4)CC3)cc2C)c1 [Compound B2N048-01, 4-[4-[[4-(5-Ethoxypyridin-3-yl)-3-methylphenyl]methyl]piperazin-1-yl]-N-(3,3,3-trifluoropropylsulfonyl)benzamide] | – | – | 0.0% | −0.7% | –
3 | CCOc1cccc(-c2cc(C(=O)N3CCN(c4ccc(C(=O)NS(=O)(=O)C(C)(C)C)nn4)CC3)cc(C(C)(C)C)c2)c1 [Compound B2L015-01, 6-[4-[3-tert-Butyl-5-(3-ethoxyphenyl)benzoyl]piperazin-1-yl]-N-tert-butylsulfonylpyridazine-3-carboxamide] | 0.0% | 0.0% | – | – | –
4 | CCOc1cccc(C#Cc2ccccc2CN2CCN(c3ccc(C(=O)NS(=O)(=O)C(C)(C)C)cc3)CC2)c1 [Compound B2L069-01, N-tert-Butylsulfonyl-4-[4-[[2-[2-(3-ethoxyphenyl)ethynyl]phenyl]methyl]piperazin-1-yl]benzamide] | 0.0% | 0.0% | – | – | –
5 | CCCNC(=O)c1ccc(N2CCN(C(=O)c3cc(-c4cncc(OCC)c4)cs3)CC2)cc1 [Compound B1M024-01] | – | – | – | – | ASMS ratio (%) n = 1 (AS-MS, mixture of 1200 compounds/well, Bcl-2 protein, replicate n = 1): 0.0%; ASMS ratio (%) n = 2 (AS-MS, mixture of 1200 compounds/well, Bcl-2 protein, replicate n = 2): 0.0%
6 | CCOc1cccc(-c2cnn(-c3cc(C(=O)N4CCN(c5ccc(C(=O)NS(=O)(=O)C(C)(C)C)cc5)CC4)cc(C(F)(F)F)c3)c2)c1 [Compound B2L043-01, N-tert-Butylsulfonyl-4-[4-[3-[4-(3-ethoxyphenyl)pyrazol-1-yl]-5-(trifluoromethyl)benzoyl]piperazin-1-yl]benzamide] | 0.0% | 0.0% | – | – | –
7 | CCOc1cncc(-c2cnn(-c3cc(C(=O)N4CCN(c5ccc(C(=O)NS(=O)(=O)CCC(F)(F)F)cc5)CC4)cc(C(F)(F)F)c3)c2)c1 [Compound B2N044-01, 4-[4-[3-[4-(5-Ethoxypyridin-3-yl)pyrazol-1-yl]-5-(trifluoromethyl)benzoyl]piperazin-1-yl]-N-(3,3,3-trifluoropropylsulfonyl)benzamide] | – | – | 0.2% | 1.4% | –
8 | CCOc1cncc(-c2cc(CN3CCN(c4ccc(C(=O)NS(C)(=O)=O)nn4)CC3)cc(OC(C)C)c2)c1 [Compound B2I084-01, 6-[4-[[3-(5-Ethoxypyridin-3-yl)-5-propan-2-yloxyphenyl]methyl]piperazin-1-yl]-N-methylsulfonylpyridazine-3-carboxamide] | −0.9% | −1.5% | – | – | –
9 | CCOc1cncc(-c2ccc(C(=O)N3CCN(c4ccc(C(=O)NS(=O)(=O)C(C)(C)C)nn4)CC3)cc2C)c1 [Compound B2L004-01] | 5.5% | 9.3% | – | – | –
10 | CCOc1cccc(C#Cc2cncc(C(=O)N3CCN(c4ccc(C(=O)NS(=O)(=O)C(C)(C)C)cc4)CC3)c2)c1 [Compound B2L031-01, N-tert-Butylsulfonyl-4-[4-[5-[2-(3-ethoxyphenyl)ethynyl]pyridine-3-carbonyl]piperazin-1-yl]benzamide] | 0.0% | 0.0% | – | – | –
11 | CCOc1cccc(-c2cnn(-c3cc(C(=O)N4CCN(c5ccc(C(=O)NS(=O)(=O)CCC(F)(F)F)nn5)CC4)cc(C(F)(F)F)c3)c2)c1 [Compound B2N021-01, 6-[4-[3-[4-(3-Ethoxyphenyl)pyrazol-1-yl]-5-(trifluoromethyl)benzoyl]piperazin-1-yl]-N-(3,3,3-trifluoropropylsulfonyl)pyridazine-3-carboxamide] | – | – | – | 0.0% | –
12 | CCOc1cccc(-c2ccccc2CN2CCN(c3ccc(C(=O)NS(=O)(=O)C(C)(C)C)nn3)CC2)c1 [Compound B2L071-01, N-tert-Butylsulfonyl-6-[4-[2-(3-ethoxyphenyl)phenyl]methyl]piperazin-1-yllpyridazine-3-carboxamide] | 1.2% | 0.0% | – | – | –
13 | CCOc1cncc(-c2ccccc2CCC(=O)N2CCN(c3ccc(C(=O)NS(=O)(=O)CCC(F)(F)F)cc3)CC2)c1 [Compound B2N034-01, 4-[4-[3-[2-(5-Ethoxypyridin-3-yl)phenyl]propanoyl]piperazin-1-yl]-N-(3,3,3-trifluoropropylsulfonyl)benzamide] | – | – | −0.2% | 1.0% | –
14 | CCOc1cncc(C#Cc2ccccc2C(=O)N2CCN(c3ccc(C(=O)NS(=O)(=O)C(C)(C)C)cc3)CC2)c1 [Compound B2L030-01, N-tert-Butylsulfonyl-4-[4-[2-[2-(5-ethoxypyridin-3-yl)ethynyl]benzoyl]piperazin-1-yl]benzamide] | 0.0% | 0.0% | – | – | –
15 | CCOc1cncc(-c2ccc(CN3CCN(c4ccc(C(=O)NS(=O)(=O)CCC(F)(F)F)cc4)CC3)c(CC)c2)c1 [Compound B2N050-01] | – | – | 0.0% | – | –
16 | CCOc1cncc(-c2ccc(CN3CCN(c4ccc(C(=O)NS(=O)(=O)C(C)(C)C)cc4)CC3)c(OC)c2)c1 [Compound B2L054-01] | 0.0% | 0.0% | – | – | –

Further lines, with some results ahead:

Row | ASMS ratio (%) n = 1 [1] | ASMS ratio (%) n = 2 [2] | ASMS ratio (%) n = 1 [3] | ASMS ratio (%) n = 2 [4] | SMILES | also measured
17 | – | – | 0.0% | 0.0% | CCOc1cccc(-c2cc(CN3CCN(c4ccc(C(=O)NS(=O)(=O)CCC(F)(F)F)cc4)CC3)cc(OCC)c2)c1 [Compound B2N055-01] | –
18 | – | – | 56.5% | 0.0% | CCOc1cccc(-c2csc(CN3CCN(c4ccc(C(=O)NS(=O)(=O)c5ccc(NCCSc6ccccc6)c(C(F)(F)F)c5)nn4)CC3)c2)c1 [Compound B2R093-01, 6-[4-[[4-(3-Ethoxyphenyl)thiophen-2-yl]methyl]piperazin-1-yl]-N-[4-(2-phenylsulfanylethylamino)-3-(trifluoromethyl)phenyl]sulfonylpyridazine-3-carboxamide] | –
19 | – | – | −3.7% | −4.1% | CCOc1cncc(-c2cnn(-c3cc(C(=O)N4CCN(c5ccc(C(=O)NS(=O)(=O)c6ccc(NCCSc7ccccc7)c(C(F)(F)F)c6)cc5)CC4)cc(C(F)(F)F)c3)c2)c1 [Compound B2R044-01, 4-[4-[3-[4-(5-Ethoxypyridin-3-yl)pyrazol-1-yl]-5-(trifluoromethyl)benzoyl]piperazin-1-yl]-N-[4-(2-phenylsulfanylethylamino)-3-(trifluoromethyl)phenyl]sulfonylbenzamide] | –
20 | – | – | 0.0% | 0.0% | CCOc1cncc(-c2cc(CN3CCN(c4ccc(C(=O)NS(=O)(=O)CCC(F)(F)F)cc4)CC3)cc(OC(C)C)c2)c1 [Compound B2N058-01] | –
21 | – | – | 3.9% | 0.0% | CCOc1cncc(-c2cc(OC)c(CN3CCN(c4ccc(C(=O)NS(=O)(=O)c5ccc(NCCSc6ccccc6)c(C(F)(F)F)c5)cc4)CC3)c(OC)c2)c1 [Compound B2R060-01, 4-[4-[[4-(5-Ethoxypyridin-3-yl)-2,6-dimethoxyphenyl]methyl]piperazin-1-yl]-N-[4-(2-phenylsulfanylethylamino)-3-(trifluoromethyl)phenyl]sulfonylbenzamide] | –
22 | – | – | 0.0% | 0.0% | CCOc1cncc(-c2ccc(CN3CCN(c4ccc(C(=O)NS(=O)(=O)CCC(F)(F)F)nn4)CC3)c(CC)c2)c1 [Compound B2N076-01, 6-[4-[[4-(5-Ethoxypyridin-3-yl)-2-ethylphenyl]methyl]piperazin-1-yl]-N-(3,3,3-trifluoropropylsulfonyl)pyridazine-3-carboxamide] | –
23 | – | – | 0.0% | 0.0% | CCOc1cccc(-c2ccc(CN3CCN(c4ccc(C(=O)NS(=O)(=O)CCC(F)(F)F)cc4)CC3)cc2F)c1 [Compound B2N051-01, 4-[4-[[4-(3-Ethoxyphenyl)-3-fluorophenyl]methyl]piperazin-1-yl]-N-(3,3,3-trifluoropropylsulfonyl)benzamide] | –
24 | – | – | −0.2% | 0.0% | CCOc1cncc(-c2ccccc2CN2CCN(c3ccc(C(=O)NS(=O)(=O)c4ccc(NCCSc5ccccc5)c(C(F)(F)F)c4)cc3)CC2)c1 [Compound B2R046-01, 4-[4-[[2-(5-ethoxypyridin-3-yl)phenyl]methyl]piperazin-1-yl]-N-[4-(2-phenylsulfanylethylamino)-3-(trifluoromethyl)phenyl]sulfonylbenzamide] | –
25 | – | – | 0.0% | 0.0% | CCOc1cccc(-c2ccc(CN3CCN(c4ccc(C(=O)NS(=O)(=O)CCC(F)(F)F)nn4)CC3)c3ccccc23)c1 [Compound B2N091-01, 6-[4-[[4-(3-Ethoxyphenyl)naphthalen-1-yl]methyl]piperazin-1-yl]-N-(3,3,3-trifluoropropylsulfonyl)pyridazine-3-carboxamide] | –
26 | – | – | 0.0% | 0.0% | CCOc1cncc(-c2ccc(CN3CCN(c4ccc(C(=O)NS(=O)(=O)CCC(F)(F)F)cc4)CC3)c(OC)c2)c1 [Compound B2N054-01, 4-[4-[[4-(5-Ethoxypyridin-3-yl)-2-methoxyphenyl]methyl]piperazin-1-yl]-N-(3,3,3-trifluoropropylsulfonyl)benzamide] | –
